System: patients with Wilson disease (WD)
Experiment: UWDRS Part III total score, functional subscale and individual items (neurological examination)
Assay type: in vivo, human
Settings: for UWDRS Part III change from baseline, LSM Diff (TTM vs SoC) / UWDRS Part III change from baseline, Mean / UWDRS Part III change from baseline, Median / UWDRS Part III change from baseline, LSM: patients symptomatic at baseline; for UWDRS Part III change from baseline, LSM: MMRM; for UWDRS Part III (0-175) change from baseline, LSM / UWDRS Part III (0-175) change from baseline, Mean / UWDRS Part III functional subscale (0-10) change from baseline, LSM / UWDRS Part III functional subscale (0-10) change from baseline, Mean / UWDRS Part III-arising from chair (0-4) change from baseline, LSM / UWDRS Part III-arising from chair (0-4) change from baseline, Mean / UWDRS Part III-gait (0-4) change from baseline, LSM / UWDRS Part III-gait (0-4) change from baseline, Mean / UWDRS Part III-handwriting (0-4) change from baseline, LSM / UWDRS Part III-handwriting (0-4) change from baseline, Mean / UWDRS Part III-speech (0-4) change from baseline, LSM / UWDRS Part III-speech (0-4) change from baseline, Mean: Study 301 TTM long term set
Description: The UWDRS scoring system was developed specifically for the motor and movement disorders associated with chronic copper neurotoxicity in WD. Some individual items/subscales of the UWDRS Part III (arising from a chair, gait, handwriting, and speech) in addition to the UWDRS Parts I, II, and III overall, were assessed to further define the range of burdensome signs and symptoms of WD, so as to further understand the assessment of treatment effects on patients with WD. The UWDRS scores for consciousness (Part I) and abnormal neurologic examination findings (Part III) will be determined by a trained neurologist rater who is blinded to study treatment randomization. These scores were used to provide a rigorous dataset for evaluating changes from baseline.
Unified Wilson Disease Rating Scale (Parts I, II, and III): The UWDRS is a clinical rating scale designed to evaluate the neurological manifestations of WD that generally can be divided into 3 movement disorder syndromes: dystonic, ataxic, and Parkinsonian syndrome. The UWDRS comprises 3 parts: UWDRS Part I (level of consciousness, item 1), UWDRS Part II (a patient-reported review of daily activity items [disability], items 2 to 11), and UWDRS Part III (a detailed neurological examination, items 12 to 34).
The UWDRS Part I and Part III were assessed by a neurologist who is blinded to the treatment randomization, while UWDRS Part II may be reported to a non-blinded member of the study team by the patient, family member, or caregiver. The UWDRS has not been formally evaluated in adolescents. However, the components of Part I (level of consciousness), Part II (patient or caregiver-reported disability) and Part III (neurologic examination findings) were not fundamentally different between adults and adolescents. Patients aged 12 years and older were expected to be able to comply with UWDRS assessments.
Pooled results from all such participants will be integrated together into one timeline to allow analyses of changes in UWDRS, long-term copper control, and long-term safety laboratory data.
Endpoints (directly measured non-ceruloplasmin-bound copper [dNCC], UWDRS III (rater blinded) total and individual item scores, Clinical Global Impression-Improvement [CGI-I]) were evaluated at baseline (BL) and Week 48 (W48). Normalization (score decrease to 0), improvement (≥1 point decrease), stability (no change), or worsening (≥1 point increase) of total and individual UWDRS III item scores were evaluated at W48.

[1] = Week 48, Cohort 1, Total (Studies 301, 201, 205), n=127

Question: How did the “UWDRS-III, Change from Baseline, Median” value [1] turn out when bis-choline tetrathiomolybdate [TTM] was run?
Answer: −1.00

Question: What about the “UWDRS-III, Change from Baseline, Min” value [1] of the same substance?
Answer: −48.0,

Question: And the “UWDRS-III, Change from Baseline, Q1” value [1]?
Answer: −6.00,

Question: And the “UWDRS-III, Change from Baseline, Q3” value [1]?
Answer: 0.00

Question: What about the “UWDRS-III, Change from Baseline, LSM Diff (TTM vs. SoC)” value (Week 48, Cohort 1, TTM Total vs SoC Study 301, P-value 0.1295) of the same substance?
Answer: −1.97

Question: What about the “UWDRS-III, Change from Baseline, LSM” value (Week 48, Cohort 1, TTM Total, SoC Study 301) of the same substance?
Answer: −3.62

Question: And the “UWDRS Part III change from baseline, LSM Diff (TTM vs SoC)” value (from here on “UWDRS Part III change … (TTM vs SoC)”) (Week 48, Cohort 1)?
Answer: −0.79

Question: And the “UWDRS Part III change from baseline, Mean” value (“UWDRS Part III change … Mean” for short) (Week 48, Cohort 1)?
Answer: −2.86

Question: What about the “UWDRS Part III change from baseline, Median” value (shortened to “UWDRS Part III change … Median”) (Week 48, Cohort 1) of the same substance?
Answer: −2.00

Question: What about the “UWDRS Part III change from baseline, LSM” value (Week 48, Cohort 1) of the same substance?
Answer: −2.68

Question: What about the “UWDRS Part III change … (TTM vs SoC)” value (Week 48, Cohort 2) of the same substance?
Answer: 0.05

Question: And the “UWDRS Part III change … Mean” value (Week 48, Cohort 2)?
Answer: −3.10

Question: What about the “UWDRS Part III change … Median” value (Week 48, Cohort 2) of the same substance?
Answer: −3.00

Question: And the “UWDRS Part III change from baseline, LSM” value (Week 48, Cohort 2)?
Answer: 1.43

Question: And the “UWDRS Part III change … (TTM vs SoC)” value (Week 48, Overall)?
Answer: −0.33

Question: What about the “UWDRS Part III change … Mean” value (Week 48, Overall) of the same substance?
Answer: 2.91

Question: And the “UWDRS Part III change … Median” value (Week 48, Overall)?
Answer: −2.00

Question: What about the “UWDRS Part III change from baseline, LSM” value (Week 48, Overall) of the same substance?
Answer: −1.54

Question: And the “UWDRS Part III (0-175) change from baseline, LSM” value (Week 48)?
Answer: −2.47

Question: What about the “UWDRS Part III (0-175) change from baseline, Mean” value (Week 48) of the same substance?
Answer: −2.32

Question: What about the “UWDRS Part III functional subscale (0-10) change from baseline, LSM” value (Week 48) of the same substance?
Answer: −0.230

Question: And the “UWDRS Part III functional subscale (0-10) change from baseline, Mean” value (Week 48)?
Answer: −0.235

Question: What about the “UWDRS Part III-arising from chair (0-4) change from baseline, LSM” value (Week 48) of the same substance?
Answer: 0.0

Question: And the “UWDRS Part III-arising from chair (0-4) change from baseline, Mean” value (Week 48)?
Answer: 0.0

Question: And the “UWDRS Part III-gait (0-4) change from baseline, LSM” value (Week 48)?
Answer: −0.26

Question: And the “UWDRS Part III-gait (0-4) change from baseline, Mean” value (Week 48)?
Answer: −0.18

Question: What about the “UWDRS Part III-handwriting (0-4) change from baseline, LSM” value (Week 48) of the same substance?
Answer: −0.1

Question: And the “UWDRS Part III-handwriting (0-4) change from baseline, Mean” value (Week 48)?
Answer: −0.2

Question: What about the “UWDRS Part III-speech (0-4) change from baseline, LSM” value (Week 48) of the same substance?
Answer: −0.1

Question: What about the “UWDRS Part III-speech (0-4) change from baseline, Mean” value (Week 48) of the same substance?
Answer: −0.1

Question: And the “UWDRS Part III (0-175) change from baseline, LSM” value (Week 72)?
Answer: −3.47

Question: What about the “UWDRS Part III (0-175) change from baseline, Mean” value (Week 72) of the same substance?
Answer: −3.27

Question: What about the “UWDRS Part III functional subscale (0-10) change from baseline, LSM” value (Week 72) of the same substance?
Answer: −0.253

Question: What about the “UWDRS Part III functional subscale (0-10) change from baseline, Mean” value (Week 72) of the same substance?
Answer: −0.290

Question: What about the “UWDRS Part III-arising from chair (0-4) change from baseline, LSM” value (Week 72) of the same substance?
Answer: −0.1

Question: What about the “UWDRS Part III-arising from chair (0-4) change from baseline, Mean” value (Week 72) of the same substance?
Answer: −0.1

Question: What about the “UWDRS Part III-gait (0-4) change from baseline, LSM” value (Week 72) of the same substance?
Answer: −0.15

Question: What about the “UWDRS Part III-gait (0-4) change from baseline, Mean” value (Week 72) of the same substance?
Answer: −0.12

Question: What about the “UWDRS Part III-handwriting (0-4) change from baseline, LSM” value (Week 72) of the same substance?
Answer: −0.2

Question: What about the “UWDRS Part III-handwriting (0-4) change from baseline, Mean” value (Week 72) of the same substance?
Answer: −0.2

Question: What about the “UWDRS Part III-speech (0-4) change from baseline, LSM” value (Week 72) of the same substance?
Answer: −0.1

Question: What about the “UWDRS Part III-speech (0-4) change from baseline, Mean” value (Week 72) of the same substance?
Answer: −0.1

Question: And the “UWDRS Part III (0-175) change from baseline, LSM” value (Week 96)?
Answer: −4.77

Question: And the “UWDRS Part III (0-175) change from baseline, Mean” value (Week 96)?
Answer: −4.09

Question: And the “UWDRS Part III functional subscale (0-10) change from baseline, LSM” value (Week 96)?
Answer: −0.386

Question: And the “UWDRS Part III functional subscale (0-10) change from baseline, Mean” value (Week 96)?
Answer: −0.503

Question: And the “UWDRS Part III-arising from chair (0-4) change from baseline, LSM” value (Week 96)?
Answer: −0.1

Question: And the “UWDRS Part III-arising from chair (0-4) change from baseline, Mean” value (Week 96)?
Answer: −0.2

Question: What about the “UWDRS Part III-gait (0-4) change from baseline, LSM” value (Week 96) of the same substance?
Answer: −0.12

Question: And the “UWDRS Part III-gait (0-4) change from baseline, Mean” value (Week 96)?
Answer: −0.11

Question: What about the “UWDRS Part III-handwriting (0-4) change from baseline, LSM” value (Week 96) of the same substance?
Answer: −0.3

Question: And the “UWDRS Part III-handwriting (0-4) change from baseline, Mean” value (Week 96)?
Answer: −0.4

Question: What about the “UWDRS Part III-speech (0-4) change from baseline, LSM” value (Week 96) of the same substance?
Answer: −0.2

Question: What about the “UWDRS Part III-speech (0-4) change from baseline, Mean” value (Week 96) of the same substance?
Answer: −0.2

Question: What about the “UWDRS Part III (0-175) change from baseline, LSM” value (Week 120) of the same substance?
Answer: −5.27

Question: And the “UWDRS Part III (0-175) change from baseline, Mean” value (Week 120)?
Answer: −4.08

Question: What about the “UWDRS Part III functional subscale (0-10) change from baseline, LSM” value (Week 120) of the same substance?
Answer: −0.392

Question: And the “UWDRS Part III functional subscale (0-10) change from baseline, Mean” value (Week 120)?
Answer: −0.410

Question: And the “UWDRS Part III-arising from chair (0-4) change from baseline, LSM” value (Week 120)?
Answer: −0.1

Question: And the “UWDRS Part III-arising from chair (0-4) change from baseline, Mean” value (Week 120)?
Answer: −0.2

Question: And the “UWDRS Part III-gait (0-4) change from baseline, LSM” value (Week 120)?
Answer: 0.04

Question: What about the “UWDRS Part III-gait (0-4) change from baseline, Mean” value (Week 120) of the same substance?
Answer: 0.26

Question: And the “UWDRS Part III-handwriting (0-4) change from baseline, LSM” value (Week 120)?
Answer: −0.3

Question: And the “UWDRS Part III-handwriting (0-4) change from baseline, Mean” value (Week 120)?
Answer: −0.5

Question: And the “UWDRS Part III-speech (0-4) change from baseline, LSM” value (Week 120)?
Answer: −0.2

Question: And the “UWDRS Part III-speech (0-4) change from baseline, Mean” value (Week 120)?
Answer: −0.1

Question: What about the “UWDRS Part III (0-175) change from baseline, LSM” value (Week 144) of the same substance?
Answer: −6.38

Question: What about the “UWDRS Part III (0-175) change from baseline, Mean” value (Week 144) of the same substance?
Answer: −5.99

Question: And the “UWDRS Part III functional subscale (0-10) change from baseline, LSM” value (Week 144)?
Answer: −0.489

Question: What about the “UWDRS Part III functional subscale (0-10) change from baseline, Mean” value (Week 144) of the same substance?
Answer: −0.573

Question: And the “UWDRS Part III-arising from chair (0-4) change from baseline, LSM” value (Week 144)?
Answer: −0.2

Question: And the “UWDRS Part III-arising from chair (0-4) change from baseline, Mean” value (Week 144)?
Answer: −0.3

Question: What about the “UWDRS Part III-gait (0-4) change from baseline, LSM” value (Week 144) of the same substance?
Answer: −0.25

Question: And the “UWDRS Part III-gait (0-4) change from baseline, Mean” value (Week 144)?
Answer: 0.00

Question: What about the “UWDRS Part III-handwriting (0-4) change from baseline, LSM” value (Week 144) of the same substance?
Answer: −0.3

From patent US20260216238A1, “TETRATHIOMOLYBDIC ACID FOR USE IN TREATING COPPER METABOLISM-ASSOCIATED DISEASES OR DISORDERS (WILSON DISEASE)” (Alexion Pharmaceuticals, Inc., priority 2023, published 2026)
